Test results from publication PMC5444859 (PLoS Pathogens, 2017).

Molecular target: CASV L-Cterm (CAS virus, UniProt J7HBG8)
Format: binding

C[n+]1cn([C@@H]2O[C@H](COP(=O)(O)OP(=O)(O)OP(=O)(O)O)[C@@H](O)[C@H]2O)c2nc(N)[nH]c(=O)c21 [m^7GTP]
X-ray crystallography, crystal soaking: the cap-analogue was bound to F1839 at the periphery of the β-sheet
